Assays:
40 HCC PDO lines = test: omacetaxine dose response, IC50 across all 40 HCC PDO lines; format: cell-based; conditions: Homo sapiens; average of 40 HCC PDO lines; read-out: calculated average IC50 across all 40 HCC PDO lines
Experimental: FIG. 2A-2E. 10 μM drug screening and IC50 calculation across 40 PDOs from 20 HCC patients. (2A). 10 μM drug screening of omacetaxine and sorafenib, regorafenib, lenvatinib and cabozantinib on 40 PDOs derived from 20 HCC patients. X axis—the 40 PDO lines, Y axis—Cell viability. (2B). IC50 curve of 40 PDO lines, x-axis—omacetaxine dose, Y axis—Relative cell viability. (2C). […] (2D). IC50 distribution of 40 HCC PDOs. X axis—PDO lines, Y axis—IC50 number of omacetaxine for each PDO.

HCC 24 = test: IC50 in PDO line; format: cell-based; conditions: Homo sapiens
Experimental: (§1) The inventors tested omacetaxine at decreasing concentrations (10 μM, 1 μM, 100 nM, 10 nM and 1 nM) to calculate the half-maximal inhibitory concentration (IC50). […] The IC50 value for each of the 40 HCC PDO lines can be found in Table 2.

HCC 26-5 = test: IC50 in PDO line; format: cell-based; conditions: Homo sapiens
Experimental: as §1

HCC 26-6 = test: IC50 in PDO line; format: cell-based; conditions: Homo sapiens
Experimental: as §1

HCC 30 = test: IC50 in PDO line; format: cell-based; conditions: Homo sapiens
Experimental: as §1

HCC 37 = test: IC50 in PDO line; format: cell-based; conditions: Homo sapiens
Experimental: as §1

HCC 38 = test: IC50 in PDO line; format: cell-based; conditions: Homo sapiens
Experimental: as §1

HCC 57 = test: IC50 in PDO line; format: cell-based; conditions: Homo sapiens
Experimental: as §1

HCC 65-2 = test: IC50 in PDO line; format: cell-based; conditions: Homo sapiens
Experimental: as §1

HCC 65-3 = test: IC50 in PDO line; format: cell-based; conditions: Homo sapiens
Experimental: as §1

HCC 71-1 = test: IC50 in PDO line; format: cell-based; conditions: Homo sapiens
Experimental: as §1

HCC 80-1 = test: IC50 in PDO line; format: cell-based; conditions: Homo sapiens
Experimental: as §1

HCC 80-5 = test: IC50 in PDO line; format: cell-based; conditions: Homo sapiens
Experimental: as §1

HCC 83-2 = test: IC50 in PDO line; format: cell-based; conditions: Homo sapiens
Experimental: as §1

HCC71-3 = test: IC50 in PDO line; format: cell-based; conditions: Homo sapiens
Experimental: as §1

6 HCC PDO lines [1] = test: FACS analysis of BrdU incorporation (proliferation); format: cell-based, human
6 HCC PDO lines [2] = test: FACS analysis of Ki67 protein; format: cell-based, human; conditions: all 6 HCC PDO lines tested
Experimental: FIG. 4A-4D. Proliferation assay of HCC PDOs treated with omacetaxine in vitro. […] (4B and 4D).Ki67 expression from 6 HCC PDO lines treated with omacetaxine were analyzed with flow cytometry. […] The effects on proliferation were assessed to elucidate the omacetaxine mechanisms of action. […] To further understand the effects of omacetaxine on cancer cell proliferation and cell cycle, the inventors performed FACS analysis of Ki67 protein. Ki-67 is a nuclear protein expressed in proliferating cells (in all phases of the cell cycle except G0)^22,23. Furthermore, the higher expression of Ki67 has been linked to poorer disease free survival and overall survival in HCC^24. […] As caspase 3 is a key molecule in apoptosis, the inventors measured its activated (cleaved) fragment.

Cyclin D1 = test: oncoprotein level by FACS at 96 h in 6 HCC PDO lines; format: cell-based, human
Excerpt: (§2) FIG. 3A-3H. Mechanism of Omacetaxine action on different HCC patient derived organoids lines. (3A). […] (3B). […] (3C) The mean fluorescence intensity ratio reflected protein synthesis rate of the plots data in (a). (3D-3H).
(§3) Select oncoproteins, such as MYC, beta-catenin, Cyclin D1, XIAP and MET are short half-life proteins^20, 26, 27.

MET [3] = test: as above; format: cell-based, human
Excerpt: as §2, §3

MYC = test: as above; format: cell-based, human
Excerpt: as §2, §3

XIAP = test: as above; format: cell-based, human
Excerpt: as §2, §3

beta-catenin [4] = test: as above; format: cell-based, human
Excerpt: as §2, §3

26-3 PDX [5] = test: Ki67 immunofluorescent staining of PDX tumor frozen sections; format: in vivo, NSG mice; conditions: omacetaxine treated HCC PDX tumors vs matched controls
Excerpt: (§4) FIG. 8A-8G. Omacetaxine inhibits tumor cell proliferation and increases apoptosis and suppressed HCC oncoprotein expression in vivo. (8A-8D) Immunofluorescent staining of Ki67 and cleaved caspase 3 expression in 26-3 PDX model. 8A-8B show the IF staining pictures, 8C-8D show the relative Ki67 or cleaved caspase 3 positive cell number in omacetaxine treated mice compared with control treatment groups. (8E-8G) Omacetaxine suppressed HCC oncoprotein: c-Myc, Beta-catenin and MET protein expression in 50 HCC PDX treated with Omacetaxine vs control.
(§5) To verify the mechanism of omacetaxine target HCC mechanism in vivo, omacetaxine treated HCC PDX tumors, as well as matched controls, were harvested, and frozen section slides were made. […] The difference in apoptosis as well as proliferation was statistically significant (FIGS. 8C and 8D).

26-3 PDX [6] = test: Cleaved Caspase 3 staining of PDX tumor frozen sections; format: in vivo, NSG mice; conditions: omacetaxine treated HCC PDX tumors vs matched controls
Excerpt: as §4, §5

MET [7] = test: oncoprotein staining of HCC PDX tumor frozen sections; format: in vivo, human; conditions: HCC PDX tumor (50 HCC PDX) vs control
Excerpt: as §4
(§6) Tumor masses from HCC PDX mice treated with omacetaxine and negative control, respectively, were utilized to prepare frozen sections, which were then stained for the c-Myc, MET and beta-catenin.

beta-catenin [8] = test: as above; format: in vivo, human; conditions: HCC PDX tumor (50 HCC PDX) vs control
Excerpt: as §4, §6

c-Myc = test: as above; format: in vivo, human; conditions: HCC PDX tumor (50 HCC PDX) vs control
Excerpt: as §4, §6

[9] = FDA approved dosage, cited from earlier work
PDX50 = test: HCC patient derived xenograft model PDX50
Excerpt: P<0.001. Error bars represent Mean±standard deviation. Not significant (NS).
The second model, PDX50, was established by directly implanting pieces of the fresh human HCC tumor into NSG mice. After initial implantation, PDX50 is perpetuated similarly to PDX26-3. […] PDX50 is less aggressive—mice continue to be active, to eat and function normally, in spite of very large tumors. Therefore, PDX50 is not ideal for survival determinations.

## COC(=O)C[C@](O)(CCCC(C)(C)O)C(=O)O[C@@H]1C(OC)=C[C@]23CCCN2CCc2cc4c(cc2[C@H]13)OCO4 [omacetaxine, omacetaxine mepusuccinate]
40 HCC PDO lines
  IC50: 35.2 nM
HCC 24
  IC50: 148 nM
HCC 26-5
  IC50: 66.7 nM
HCC 26-6
  IC50: 80.8 nM
HCC 30
  IC50: 50.6 nM
HCC 37
  IC50: 3.52 nM
HCC 38
  IC50: 18.5 nM
HCC 57
  IC50: 14.1 nM
HCC 65-2
  IC50: 7.4 nM
HCC 65-3
  IC50: 2.26 nM
HCC 71-1
  IC50: 7.29 nM
HCC 80-1
  IC50: 80.1 nM
HCC 80-5
  IC50: 27.6 nM
HCC 83-2
  IC50: 19.2 nM
HCC71-3
  IC50: 1.51 nM
6 HCC PDO lines [1]
  BrdU incorporation in newly synthetized DNA (proliferation): inhibited incorporation
6 HCC PDO lines [2]
  expression of Ki67: reduces the expression of Ki67
Cyclin D1
  Cyclin D1 level: inhibited
MET [3]
  MET level: inhibited
MYC
  MYC level: inhibited
XIAP
  XIAP level: inhibited
beta-catenin [4]
  beta-catenin level: inhibited
26-3 PDX [5]
  proliferation as measured by Ki67 protein expression: less
26-3 PDX [6]
  apoptosis as quantified by Cleaved Caspase 3 staining: increased
MET [7]
  MET expression in vivo: downregulated
beta-catenin [8]
  beta-catenin expression in vivo: downregulated
c-Myc
  c-Myc expression in vivo: downregulated
[9]
  infectious complications, share of patients: approximately 5%
[9]; patients
  main side effects: hematologic depletion (thrombocytopenia, anemia, and neutropenia) and diarrhea
PDX50
  body mass of mice, treatment vs. control group: no difference in the body mass
PDX50; PDX50 mice, treatment applied directly into the tumor
  tumor growth: halting of tumor growth

Reference: patent US20220226342A1, “COMPOSITIONS AND METHODS OF TREATING LIVER CANCERS” (The Johns Hopkins University, priority 2019, published 2022)
